pIC50: −log10 of the molar value. Read-outs that look alike come from different tables or passages of the source.
Biological target: T1, CaV2.2 (Homo sapiens, UniProt Q00975)
T1 construct: expressed in transfected cells; host or cells: HEK293
Assay: VIPR optical membrane potential assay with electrical stimulation
Format: cell-based
Summary of the method: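 HEK293 cells stably expressing CaV2.2, stained with CC2-DMPE (10 μM final) and oxonol voltage-sensitive dyes, compound added with BaCl2. Membrane potential response evoked by 3-5 s electrical stimulation. Read as background-subtracted 460/580 nm emission ratio, response R=Rf/Ri, normalized to mibefradil positive and no-drug negative controls.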

[1] = Table 3, biological assay data, read-out: IC50

T1 sequence (Q00975 whole entry): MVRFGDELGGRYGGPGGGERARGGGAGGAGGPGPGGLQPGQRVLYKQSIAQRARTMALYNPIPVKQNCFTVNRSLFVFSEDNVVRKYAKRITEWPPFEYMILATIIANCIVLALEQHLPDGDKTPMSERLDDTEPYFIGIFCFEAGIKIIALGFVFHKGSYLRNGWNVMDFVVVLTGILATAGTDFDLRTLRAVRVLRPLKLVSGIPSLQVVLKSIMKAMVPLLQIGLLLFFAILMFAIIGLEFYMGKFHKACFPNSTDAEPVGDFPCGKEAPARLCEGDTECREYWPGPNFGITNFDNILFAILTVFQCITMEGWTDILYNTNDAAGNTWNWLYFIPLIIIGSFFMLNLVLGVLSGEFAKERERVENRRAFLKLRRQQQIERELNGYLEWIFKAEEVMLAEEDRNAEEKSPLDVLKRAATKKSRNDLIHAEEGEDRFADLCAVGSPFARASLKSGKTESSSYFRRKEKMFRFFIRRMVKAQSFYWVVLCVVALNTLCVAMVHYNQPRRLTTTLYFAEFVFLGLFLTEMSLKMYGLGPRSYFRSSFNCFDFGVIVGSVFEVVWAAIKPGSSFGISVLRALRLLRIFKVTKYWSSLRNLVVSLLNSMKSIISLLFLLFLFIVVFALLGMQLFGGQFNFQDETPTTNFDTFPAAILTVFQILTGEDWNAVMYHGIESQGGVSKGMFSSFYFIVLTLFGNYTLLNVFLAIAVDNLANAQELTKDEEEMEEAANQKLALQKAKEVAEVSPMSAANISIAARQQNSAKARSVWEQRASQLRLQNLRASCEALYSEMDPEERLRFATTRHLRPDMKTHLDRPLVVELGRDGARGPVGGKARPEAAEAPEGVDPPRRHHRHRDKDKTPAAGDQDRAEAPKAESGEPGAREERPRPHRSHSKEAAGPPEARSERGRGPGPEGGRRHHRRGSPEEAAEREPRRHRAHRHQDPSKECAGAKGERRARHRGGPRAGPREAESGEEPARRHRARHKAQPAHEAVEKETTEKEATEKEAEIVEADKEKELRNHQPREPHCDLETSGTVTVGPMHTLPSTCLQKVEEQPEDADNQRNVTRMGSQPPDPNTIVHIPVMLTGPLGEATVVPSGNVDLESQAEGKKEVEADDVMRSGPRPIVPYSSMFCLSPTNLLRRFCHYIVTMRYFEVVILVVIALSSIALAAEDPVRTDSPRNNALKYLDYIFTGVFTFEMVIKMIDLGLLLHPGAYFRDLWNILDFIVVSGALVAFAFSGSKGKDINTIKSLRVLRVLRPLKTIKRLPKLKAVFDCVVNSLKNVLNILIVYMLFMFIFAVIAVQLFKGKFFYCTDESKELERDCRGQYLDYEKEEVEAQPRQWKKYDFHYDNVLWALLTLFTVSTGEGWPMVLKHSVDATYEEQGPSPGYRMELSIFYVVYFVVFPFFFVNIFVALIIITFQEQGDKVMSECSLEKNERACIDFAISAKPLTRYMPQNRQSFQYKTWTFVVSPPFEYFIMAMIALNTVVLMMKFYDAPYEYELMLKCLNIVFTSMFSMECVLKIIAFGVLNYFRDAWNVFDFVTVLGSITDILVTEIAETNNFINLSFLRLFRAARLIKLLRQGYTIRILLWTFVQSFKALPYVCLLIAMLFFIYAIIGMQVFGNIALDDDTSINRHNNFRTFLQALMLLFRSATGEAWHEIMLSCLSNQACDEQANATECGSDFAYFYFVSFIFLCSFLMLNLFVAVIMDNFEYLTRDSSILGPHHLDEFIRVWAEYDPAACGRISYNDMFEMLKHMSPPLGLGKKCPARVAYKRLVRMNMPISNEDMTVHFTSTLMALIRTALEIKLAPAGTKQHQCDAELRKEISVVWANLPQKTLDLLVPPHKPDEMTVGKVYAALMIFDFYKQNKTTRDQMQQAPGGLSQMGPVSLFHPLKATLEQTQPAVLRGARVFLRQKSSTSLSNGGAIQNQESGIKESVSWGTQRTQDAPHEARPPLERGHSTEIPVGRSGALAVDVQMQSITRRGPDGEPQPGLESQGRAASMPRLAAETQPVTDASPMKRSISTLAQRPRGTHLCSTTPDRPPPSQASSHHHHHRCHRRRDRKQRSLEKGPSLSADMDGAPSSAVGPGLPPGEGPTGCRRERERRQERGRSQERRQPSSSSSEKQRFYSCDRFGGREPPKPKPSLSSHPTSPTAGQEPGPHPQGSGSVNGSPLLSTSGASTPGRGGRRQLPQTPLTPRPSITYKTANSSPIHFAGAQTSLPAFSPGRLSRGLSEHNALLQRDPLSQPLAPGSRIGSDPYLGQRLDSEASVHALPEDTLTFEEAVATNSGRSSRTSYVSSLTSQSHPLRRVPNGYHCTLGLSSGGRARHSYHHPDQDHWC
T1 sequence (P54284 whole entry partner): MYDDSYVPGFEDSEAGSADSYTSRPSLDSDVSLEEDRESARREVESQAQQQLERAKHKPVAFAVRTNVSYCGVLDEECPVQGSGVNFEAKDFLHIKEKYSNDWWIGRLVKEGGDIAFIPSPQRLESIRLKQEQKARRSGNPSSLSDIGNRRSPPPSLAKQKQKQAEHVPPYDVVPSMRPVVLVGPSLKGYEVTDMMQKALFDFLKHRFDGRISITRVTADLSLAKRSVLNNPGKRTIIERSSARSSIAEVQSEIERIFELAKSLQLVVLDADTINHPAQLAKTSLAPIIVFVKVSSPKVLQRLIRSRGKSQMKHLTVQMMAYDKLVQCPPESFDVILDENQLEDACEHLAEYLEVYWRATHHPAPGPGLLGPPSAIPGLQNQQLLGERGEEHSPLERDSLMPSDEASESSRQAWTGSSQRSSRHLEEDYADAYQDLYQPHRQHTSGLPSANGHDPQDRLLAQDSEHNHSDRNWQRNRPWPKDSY
T1 sequence (P54289 25-946 partner limits assumed): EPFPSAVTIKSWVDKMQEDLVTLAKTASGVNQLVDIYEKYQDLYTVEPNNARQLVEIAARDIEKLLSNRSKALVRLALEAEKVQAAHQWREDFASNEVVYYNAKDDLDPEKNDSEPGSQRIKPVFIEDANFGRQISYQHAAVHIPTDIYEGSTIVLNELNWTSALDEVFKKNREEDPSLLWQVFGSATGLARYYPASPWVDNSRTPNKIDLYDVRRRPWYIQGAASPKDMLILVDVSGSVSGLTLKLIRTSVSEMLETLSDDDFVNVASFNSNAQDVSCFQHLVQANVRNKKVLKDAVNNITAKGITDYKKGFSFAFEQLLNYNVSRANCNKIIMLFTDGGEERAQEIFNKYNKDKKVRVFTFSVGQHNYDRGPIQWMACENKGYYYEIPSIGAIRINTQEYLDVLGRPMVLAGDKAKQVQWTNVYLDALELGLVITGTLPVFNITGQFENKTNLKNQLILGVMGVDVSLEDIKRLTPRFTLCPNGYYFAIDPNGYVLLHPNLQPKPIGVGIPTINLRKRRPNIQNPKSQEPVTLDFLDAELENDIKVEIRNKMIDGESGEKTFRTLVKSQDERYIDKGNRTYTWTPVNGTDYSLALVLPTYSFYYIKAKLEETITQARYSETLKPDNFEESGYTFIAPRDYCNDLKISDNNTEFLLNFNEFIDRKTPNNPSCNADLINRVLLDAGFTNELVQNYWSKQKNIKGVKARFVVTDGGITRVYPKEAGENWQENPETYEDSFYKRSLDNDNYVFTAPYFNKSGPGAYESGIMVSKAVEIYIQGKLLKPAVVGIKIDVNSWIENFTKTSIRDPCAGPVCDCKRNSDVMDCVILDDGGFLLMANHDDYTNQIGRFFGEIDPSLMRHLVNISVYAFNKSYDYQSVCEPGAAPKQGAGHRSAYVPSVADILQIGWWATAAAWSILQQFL
T1 sequence (P54289 947-1103 partner limits assumed): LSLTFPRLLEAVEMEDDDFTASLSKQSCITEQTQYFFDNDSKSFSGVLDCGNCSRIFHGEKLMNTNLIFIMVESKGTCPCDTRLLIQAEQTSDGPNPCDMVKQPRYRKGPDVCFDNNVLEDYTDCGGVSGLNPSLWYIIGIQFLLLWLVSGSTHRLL

Cc1c(C(=O)NCc2ccccc2)oc2ccc(S(=O)(=O)N3CCCC(C)C3)cc12 (stereo not shown) [compound 397]
pIC50 [1]: 4.70 to 5.30

O=C(NCc1ccccc1)c1cc2cc(S(=O)(=O)N3CCCCCC3)ccc2n1S(=O)(=O)c1ccccc1 [compound 398]
pIC50 [1]: > 5.30

CCN(CC)S(=O)(=O)c1ccc2oc(C(=O)NC(C)C)c(C)c2c1 [compound 399]
pIC50 [1]: > 4.70

CC(C)NC(=O)c1cc2cc(S(=O)(=O)N3CCCCCC3)ccc2[nH]1 [compound 400]
pIC50 [1]: > 4.70

Cc1c(C(=O)NCCCc2ccccc2)oc2ccc(S(=O)(=O)N3CCCC(C)C3)cc12 (stereo not shown) [compound 401]
pIC50 [1]: > 5.30

Cc1c(C(=O)N2CCCC2)oc2ccc(S(=O)(=O)N3CCCCCC3)cc12 [compound 402]
pIC50 [1]: > 4.70

CCOC(=O)N1CCN(C(=O)c2oc3ccc(S(=O)(=O)N4CCCC(C)C4)cc3c2C)CC1 (stereo not shown) [compound 403]
pIC50 [1]: > 5.30

Cc1c(C(=O)N2CCN(C)CC2)oc2ccc(S(=O)(=O)N3CCCC(C)C3)cc12 (stereo not shown) [compound 404]
pIC50 [1]: 4.70 to 5.30

CC1CC(C)CN(S(=O)(=O)c2ccc3[nH]c(C(=O)NCCC4CCOCC4)cc3c2)C1 (stereo not shown) [compound 405]
pIC50 [1]: > 5.30

CC1CCCN(C(=O)c2cc3cc(S(=O)(=O)N4CC(C)CC(C)C4)ccc3o2)C1 (stereo not shown) [compound 406]
pIC50 [1]: > 5.30

CC1CCN(S(=O)(=O)c2ccc3[nH]c(C(=O)NCC4CCCO4)cc3c2)CC1 (stereo not shown) [compound 407]
pIC50 [1]: > 5.30

CC1CC(C)CN(S(=O)(=O)c2ccc3oc(C(=O)NCC4CCCO4)cc3c2)C1 (stereo not shown) [compound 408]
pIC50 [1]: > 5.30

Cc1c(C(=O)N2CCCCCC2)oc2ccc(S(=O)(=O)N3CCCC(C)C3)cc12 (stereo not shown) [compound 409]
pIC50 [1]: > 5.30

CCOC(=O)N1CCN(C(=O)c2cc3cc(S(=O)(=O)N4CCCCCC4)ccc3o2)CC1 [compound 410]
pIC50 [1]: 4.70 to 5.30

Cc1c(C(=O)NC(C)C)oc2ccc(S(=O)(=O)N3CCC(C)CC3)cc12 [compound 411]
pIC50 [1]: > 5.30

CC1CCN(S(=O)(=O)c2ccc3[nH]c(C(=O)NC4CCCC4)cc3c2)CC1 [compound 412]
pIC50 [1]: > 5.30

Cc1c(C(=O)N2CCCC(C)C2)oc2ccc(S(=O)(=O)N3CCCC(C)C3)cc12 (stereo not shown) [compound 413]
pIC50 [1]: > 5.30

Cc1c(C(=O)N2CCCC2)oc2ccc(S(=O)(=O)N3CC(C)CC(C)C3)cc12 (stereo not shown) [compound 414]
pIC50 [1]: > 5.30

CCOC(=O)N1CCN(C(=O)c2cc3cc(S(=O)(=O)N4CC(C)CC(C)C4)ccc3[nH]2)CC1 (stereo not shown) [compound 415]
pIC50 [1]: > 5.30

CN(Cc1ccccc1)C(=O)c1cc2cc(S(=O)(=O)N3CCCCCC3)ccc2[nH]1 [compound 416]
pIC50 [1]: > 5.30

CC1CCN(S(=O)(=O)c2ccc3oc(C(=O)N4CCCC(C)C4)cc3c2)CC1 (stereo not shown) [compound 417]
pIC50 [1]: 4.70 to 5.30

O=C(NCC1CCOCC1)c1cc2cc(S(=O)(=O)N3CCCCCC3)ccc2[nH]1 [compound 418]
pIC50 [1]: > 5.30

CC1CC(C)CN(S(=O)(=O)c2ccc3c(c2)cc(C(=O)N2CCN(C)CC2)n3S(=O)(=O)c2ccccc2)C1 (stereo not shown) [compound 419]
pIC50 [1]: 4.70 to 5.30

CCCCN(C)C(=O)c1[nH]c2ccc(S(=O)(=O)N3CC(C)CC(C)C3)cc2c1C (stereo not shown) [compound 420]
pIC50 [1]: > 5.30

O=C(NC1CC1)c1cc2cc(S(=O)(=O)N3CCCCCC3)ccc2n1S(=O)(=O)c1ccccc1 [compound 421]
pIC50 [1]: > 5.30

CCCCN(C)C(=O)c1cc2cc(S(=O)(=O)N3CCCCCC3)ccc2[nH]1 [compound 422]
pIC50 [1]: > 5.30

CCN(CC)C(=O)c1oc2ccc(S(=O)(=O)N3CC(C)CC(C)C3)cc2c1C (stereo not shown) [compound 423]
pIC50 [1]: > 5.30

Cc1c(C(=O)NC2CCCCC2)[nH]c2ccc(S(=O)(=O)N3CCC(C)CC3)cc12 [compound 424]
pIC50 [1]: 4.70 to 5.30

CC1CC(C)CN(C(=O)c2cc3cc(S(=O)(=O)N4CC(C)CC(C)C4)ccc3[nH]2)C1 (stereo not shown) [compound 425]
pIC50 [1]: > 5.30

Cc1c(C(=O)NC2CC2)oc2ccc(S(=O)(=O)N3CCCC(F)(F)C3)cc12 [compound 426]
pIC50 [1]: 4.70 to 5.30

O=C(NC1CCCCC1)c1cc2cc(S(=O)(=O)N3CCCCCC3)ccc2o1 [compound 427]
pIC50 [1]: > 5.30

O=C(NC1CC1)c1cc2cc(NS(=O)(=O)c3ccccc3)ccc2[nH]1 [compound 428]
pIC50 [1]: > 4.70

O=C(NCC1CCCO1)c1cc2cc(S(=O)(=O)N3CCCCCC3)ccc2o1 (stereo not shown) [compound 429]
pIC50 [1]: 4.70 to 5.30

CC1CC(C)CN(S(=O)(=O)c2ccc3oc(C(=O)N(C)Cc4ccccc4)cc3c2)C1 (stereo not shown) [compound 430]
pIC50 [1]: > 5.30

Cc1c(C(N)=O)oc2ccc(S(=O)(=O)N3CCC(C)CC3)cc12 [compound 431]
pIC50 [1]: 4.70 to 5.30

Cc1c(C(=O)N2CCC3(CC2)OCCO3)oc2ccc(S(=O)(=O)N3CCOCC3)cc12 [compound 432]
pIC50: > 4.70

CC1CCN(S(=O)(=O)c2ccc3oc(C(=O)N(C)Cc4ccccc4)cc3c2)CC1 [compound 433]
pIC50 [1]: > 5.30

CC1CCN(S(=O)(=O)c2ccc3[nH]cc(C(=O)NC4CC4)c3c2)CC1 [compound 434]
pIC50 [1]: > 4.70

CNC(=O)c1cc2cc(S(=O)(=O)N3CC(C)CC(C)C3)ccc2n1C (stereo not shown) [compound 435]
pIC50 [1]: > 5.30

CC1CCN(S(=O)(=O)c2ccc3[nH]c(C(=O)N4CCCCC4C)cc3c2)CC1 (stereo not shown) [compound 436]
pIC50 [1]: > 5.30

CC1CCCCN1C(=O)c1cc2cc(S(=O)(=O)N3CCCCCC3)ccc2[nH]1 (stereo not shown) [compound 437]
pIC50 [1]: > 4.70

CNC(=O)c1cc2cc(S(=O)(=O)N3CCC(C)CC3)ccc2o1 [compound 438]
pIC50 [1]: 4.70 to 5.30

CCOC(=O)N1CCN(C(=O)c2[nH]c3ccc(S(=O)(=O)N4CC(C)CC(C)C4)cc3c2C)CC1 (stereo not shown) [compound 439]
pIC50 [1]: > 5.30

Cc1c(C(=O)N2CCCCC2)[nH]c2ccc(S(=O)(=O)N3CC(C)CC(C)C3)cc12 (stereo not shown) [compound 440]
pIC50 [1]: > 5.30

Cc1c(C(=O)NCc2ccccc2)oc2ccc(S(=O)(=O)N3CC(C)CC(C)C3)cc12 (stereo not shown) [compound 441]
pIC50 [1]: > 5.30

CNC(=O)c1[nH]c2ccc(S(=O)(=O)N3CCCCCC3)cc2c1C [compound 442]
pIC50 [1]: 4.70 to 5.30

Cc1c(C(=O)N(C(C)C)C(C)C)oc2ccc(S(=O)(=O)N3CCC(C)CC3)cc12 [compound 443]
pIC50 [1]: 4.70 to 5.30

CCNC(=O)c1oc2ccc(S(=O)(=O)N(CC)CC)cc2c1C [compound 444]
pIC50 [1]: > 4.70

Cc1c(C(=O)NCCc2ccccc2)oc2ccc(S(=O)(=O)N3CCCC(C)C3)cc12 (stereo not shown) [compound 445]
pIC50 [1]: > 5.30

Cc1c(C(=O)NC2CCCCC2)oc2ccc(S(=O)(=O)N3CCCCCC3)cc12 [compound 446]
pIC50 [1]: 4.70 to 5.30

Cc1c(C(=O)NC2CC2)oc2ccc(S(=O)(=O)Nc3nccs3)cc12 [compound 447]
pIC50 [1]: > 4.70

CC1CCN(S(=O)(=O)c2ccc3[nH]c(C(=O)NC4CCCCC4)cc3c2)CC1 [compound 448]
pIC50 [1]: 4.70 to 5.30

Cc1c(C(=O)N2CC(C)OC(C)C2)oc2ccc(S(=O)(=O)N3CCC(C)CC3)cc12 (stereo not shown) [compound 449]
pIC50 [1]: 4.70 to 5.30

Cc1c(C(=O)NC(C)C)[nH]c2ccc(S(=O)(=O)N3CC(C)CC(C)C3)cc12 (stereo not shown) [compound 450]
pIC50 [1]: 4.70 to 5.30

Cc1c(C(=O)N2CCCCC2)oc2ccc(S(=O)(=O)N3CC(C)CC(C)C3)cc12 (stereo not shown) [compound 451]
pIC50 [1]: > 5.30

CC1CC(C)CN(S(=O)(=O)c2ccc3c(c2)cc(C(=O)NCc2ccccc2)n3S(=O)(=O)c2ccccc2)C1 (stereo not shown) [compound 452]
pIC50 [1]: > 5.30

Cc1c(C(=O)NC2CC2)oc2ccc(S(=O)(=O)Nc3cccnc3)cc12 [compound 453]
pIC50 [1]: > 4.70

CNC(=O)c1cc2cc(S(=O)(=O)N3CC(C)CC(C)C3)ccc2o1 (stereo not shown) [compound 454]
pIC50 [1]: > 5.30

Reference: patent publication US8211935B2, “Heterocyclic derivatives for modulation of calcium channels” (Vertex Pharmaceuticals Incorporated, priority 2004, dated 2012)
